Assay results from US20080064071A1, “Zwitterionic detergents for the storage and use of DNA polymerases” (priority 2006, published 2008).

Tests used:
[1] = tested on: Pfu fusion DNA polymerase; experiment: Endpoint PCR with Pfu fusion DNA polymerase, detergent/surfactant added to detergent-free PCR buffer; type: biochemical, Pyrococcus furiosus
Pfu DNA polymerase = target: T1, Pfu DNA polymerase (Pyrococcus furiosus, UniProt P61875); experiment: Endpoint PCR with Pfu DNA polymerase, detergent/surfactant added to detergent-free PCR buffer; type: biochemical
T1 sequence (P61875 1-775): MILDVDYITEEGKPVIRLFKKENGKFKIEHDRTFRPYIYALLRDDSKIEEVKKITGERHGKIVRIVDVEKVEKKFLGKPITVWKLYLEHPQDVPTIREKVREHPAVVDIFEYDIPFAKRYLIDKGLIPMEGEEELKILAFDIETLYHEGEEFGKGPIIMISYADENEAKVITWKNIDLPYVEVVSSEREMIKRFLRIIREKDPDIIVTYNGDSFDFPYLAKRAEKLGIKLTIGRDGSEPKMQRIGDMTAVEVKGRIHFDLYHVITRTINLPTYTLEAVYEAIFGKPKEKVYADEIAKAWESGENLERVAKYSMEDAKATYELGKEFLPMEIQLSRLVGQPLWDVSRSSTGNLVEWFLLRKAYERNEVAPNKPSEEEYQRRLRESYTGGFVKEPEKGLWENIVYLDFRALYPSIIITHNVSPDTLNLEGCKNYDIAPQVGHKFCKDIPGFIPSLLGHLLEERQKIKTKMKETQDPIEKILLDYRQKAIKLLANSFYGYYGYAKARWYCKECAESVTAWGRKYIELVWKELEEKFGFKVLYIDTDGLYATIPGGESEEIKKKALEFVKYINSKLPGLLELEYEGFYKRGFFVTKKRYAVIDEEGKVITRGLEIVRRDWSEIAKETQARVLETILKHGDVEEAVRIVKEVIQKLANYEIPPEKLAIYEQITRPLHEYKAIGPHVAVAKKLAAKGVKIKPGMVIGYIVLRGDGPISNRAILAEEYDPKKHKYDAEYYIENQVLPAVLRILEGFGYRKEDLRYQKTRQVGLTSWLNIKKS
Description: Pfu (exo+ and exo−) fusion DNA polymerase (e.g., as described in U.S. patent application Ser. No.: 11/488,535, filed Jul. 17, 2006, and herein incorporated by reference in its entirety), cPfu DNA polymerase (Stratagene catalog #600154), and PEF were purified using standard production protocols (no detergent present), except that non-ionic detergents were omitted from the final storage buffers. Enzymes were stored at −20° C. in 50 mM Tris-HCl (pH 8.2), 0.1 mM EDTA, 1 mM DTT, and 50% glycerol. DNA polymerase storage buffers were additionally supplemented with one or more zwitterionic detergents, in percentages (v/v) ranging from 0.05% to 0.5%.
PCR reaction buffers were prepared without non-ionic detergents (“DF buffer”, detergent-free buffer). For example, 1× cPfu DF-buffer contains 10 mM KCl, 10 mM (NH4)2SO4, 20 mM Tris HCl (pH 8.8), 2 mM MgSO4, and 100 ug/ml BSA. Detergent-free versions of Pfu fusion buffers were also prepared, and consisted of: 40 mM Tris-SO4 (pH 10), 15 mM K2SO4, 8 mM (NH4)2SO4, 2 mM MgSO4 (1× Pfu fusion DF-buffer I) or 30 mM Tris-SO4 (pH 10), 40 mM K2SO4, 1.5 mM (NH4)2SO4, 2 mM MgSO4 (1× Pfu fusion DF-buffer II).
PCR reaction buffers were supplemented with 0.1% Triton X100 (non-ionic detergent) or with one or more zwitterionic detergents or non-detergent surfactants. For example, zwitterionic detergents CHAPS, CHAPSO, 3-10, and 3-12 were obtained from AnaTrace, Inc. (Maumee, Ohio) and added to DF-buffers in percentages (v/v) ranging from 0.05% to 0.5%. The non-detergent surfactant, Surfynol 465, was purchased from Air Products and used in a similar fashion.
For the 0.9 kb and 6 kb systems, PCR reactions (50 ul) were conducted with 40 ng cPfu DNA polymerase in IX cPfu DF-buffer or with 28 ng or 224 ng Pfu fusion DNA polymerase in 1× Pfu fusion DF-buffer I or DF-buffer II, respectively. PCR reactions also contained 2 U/50 ul Pyrococcus furiosus dUTPase (PEF), 100 ng of human genomic DNA, 250 uM each dNTP, and 100 ng of each primer. For the 9 kb system, PCR reactions (50 ul) consisted of 80 ng Pfu, 1.5× cPfu DF-buffer, 2U Pyrococcus furiosus dUTPase (PEF), 200 ng of human genomic DNA, 500 uM each dNTP, and 200 ng of each primer. PCR reaction buffers were supplemented with 0.1% Triton X100 or with zwitterionic detergent(s).

[2] = tested on: Pfu and Pfu fusion DNA polymerase; experiment: Endpoint PCR, enhancing detergents and detergent combinations (Table 2); type: biochemical, Pyrococcus furiosus
[3] = tested on: Pfu fusion DNA polymerase; experiment: Accelerated stability study of Pfu fusion DNA polymerase in storage buffer, residual activity by 0.9 kb PCR; type: biochemical, Pyrococcus furiosus; conditions: detergent in storage buffer
Description: Accelerated stability studies were performed to illustrate the stabilizing effects of zwitterionic detergents. Pfu fusion DNA polymerase was purified in the absence of detergents and then diluted to 28 ng/ul in storage buffer lacking detergent or storage buffers containing either conventional non-ionic detergent (0.1% Igepal/0.1% Triton X100) or various zwitterionic detergents. Protein samples were stored at −20° C. or were heated at 95° C. for varying lengths of time. Residual activity was assayed by amplifying a 0.9 kb genomic target in PCR in fusion DF-buffer supplemented with either 0.1% Triton X100 or 0.1% CHAPSO/0.1% Anzergent 3-12.

[4] = tested on: Pfu fusion DNA polymerase; experiment: SYBR Green QPCR with Pfu fusion DNA polymerase; type: biochemical, Pyrococcus furiosus; conditions: detergent alone
Description: QPCR reactions contained DNA or cDNA template, varying amounts of primer (see Table 3 below), 300 uM each dNTP, 4 ng/ul exo Pfu fusion, 6 ng/ul hot start IgG, 0.4ng/ul single-stranded DNA-binding protein, 1× Pfu fusion DF-buffer II (pH 9), 4% DMSO, and 8% glycerol. QPCR reactions were supplemented with 0.1% Triton X100 or zwitterionic detergent, and with 0.5× SYBR Green (Molecular Probes S-7567). Reactions were cycled on the MX3000P Real-Time PCR System using the following conditions: (1 cycle) 95° C. 5 min; (40 cycles) 95° C. 10 sec, 60° C. 30 sec.

Taq DNA polymerase = Taq DNA polymerase (Thermus aquaticus, UniProt P19821); conditions: disclosed in U.S. Pat. No. 6,127,155; cited from earlier work
[5] = combination CHAPS (0.1%) + Anz. 3-12 (0.05-0.5%)

Taq DNA polymerase, sequence (P19821 whole entry): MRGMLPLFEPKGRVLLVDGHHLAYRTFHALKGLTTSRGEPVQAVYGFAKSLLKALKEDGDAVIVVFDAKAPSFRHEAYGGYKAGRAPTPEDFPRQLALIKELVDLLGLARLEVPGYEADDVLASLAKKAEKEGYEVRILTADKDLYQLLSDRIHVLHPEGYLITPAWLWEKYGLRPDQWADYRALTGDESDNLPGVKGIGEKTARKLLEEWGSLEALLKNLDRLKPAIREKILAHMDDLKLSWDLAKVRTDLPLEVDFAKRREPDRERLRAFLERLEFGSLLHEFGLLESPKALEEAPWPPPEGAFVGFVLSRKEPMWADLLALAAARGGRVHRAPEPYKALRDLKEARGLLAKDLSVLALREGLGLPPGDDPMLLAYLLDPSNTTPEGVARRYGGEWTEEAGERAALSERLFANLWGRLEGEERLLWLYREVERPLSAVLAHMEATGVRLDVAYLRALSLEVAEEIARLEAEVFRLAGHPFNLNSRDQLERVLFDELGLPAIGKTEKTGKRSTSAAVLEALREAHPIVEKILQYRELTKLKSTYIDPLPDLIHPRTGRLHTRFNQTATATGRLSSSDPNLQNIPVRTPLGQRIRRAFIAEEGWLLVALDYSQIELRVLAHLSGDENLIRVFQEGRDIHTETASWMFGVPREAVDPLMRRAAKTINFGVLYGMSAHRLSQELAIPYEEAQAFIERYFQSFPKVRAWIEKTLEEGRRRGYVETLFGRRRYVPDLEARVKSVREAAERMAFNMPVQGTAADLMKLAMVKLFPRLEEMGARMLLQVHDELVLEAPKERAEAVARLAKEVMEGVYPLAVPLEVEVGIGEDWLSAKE

Compound | PCR product with detergent alone (FIG. 3) ([1]; 0.05% of the individual detergent) | detergent concentration at which amplifications generated product yields (FIG. 1) ([1]; individual detergent in fusion PCR buffer, genomic DNA targets, no product in absence of detergent) | effectiveness relative to CHAPS and Anzergent 3-10 (FIG. 5) (Pfu DNA polymerase; CHAPSO 0.05-0.2%, Anzergent 3-12 0.1-0.2%, in PCR buffer) | product yields on addition of zwitterionic detergent to PCR buffer (FIG. 5) (Pfu DNA polymerase; versus buffer lacking detergent, which failed to generate product) | Optimal range, concentration of each detergent in combination ([2]; combination CHAPS (0.05%) + Anz. 3-12 (0.05-0.3%)) | Effective range, concentration of each detergent in combination ([2]; combination CHAPS (0.05%) + Anz. 3-12 (0.05-0.5%)) | Effective range, concentration of each detergent in combination [2, 5] | Optimal range, concentration of each detergent in combination [2, 5] | Effective range, concentration of each detergent in combination ([2]; combination CHAPSO (0.05%, 0.1%) + Anz. 3-12 (0.05-0.5%)) | Effective range, Detergent 1 (single detergent) ([2]; endpoint PCR, detergent alone) | Optimal range, Detergent 1 (single detergent) ([2]; endpoint PCR, detergent alone) | effect on stability of Pfu fusion DNA polymerase (FIG. 6) [3] | Effective range, Detergent 1 (single detergent), SYBR Green QPCR [4] | Optimal range, Detergent 1 (single detergent), SYBR Green QPCR [4] | effect on Taq DNA polymerase (Taq DNA polymerase)
CCCCCCCCCCCC[N+](C)(C)CCCS(=O)(=O)[O-] [Anzergent 3-12, n-Dodecyl-N,N-dimethyl-3-ammonio-1-propanesulfonate] | did not show observable levels of PCR product | 0.1-0.2% | somewhat more effective | dramatically improved | Anz. 3-12 (0.05-0.3%) | Anz. 3-12 (0.05-0.5%) | Anz. 3-12 (0.05-0.5%) | Anz. 3-12 (0.05-0.5%) | Anz. 3-12 (0.05-0.5%) | Anz. 3-12 (0.1-0.4%) | Anz. 3-12 (0.1-0.2%) | enhance the stability | Anz. 3-12 (0.1-0.2%) | Anz. 3-12 (0.15-0.2%) | 
NP-40 |  |  |  |  |  |  |  |  |  |  |  |  |  |  | stabilize
